Assay results reported in patent publication US9289443B2, “Pharmaceutical composition and method for preventing or treating hepatitis C” (INDUSTRIAL TECHNOLOGY RESEARCH INSTITUTE, priority 2010, dated 2016).
Read-outs that look alike come from different tables or passages of the source.

Legend:
[1] = tested on: Huh-luc/neo-ET cells; experiment: Cell cytotoxic test (MTT) on Huh-luc/neo-ET cells; assay type: cell-based; settings: concentration for 15% cell kill, two-day culture
Method: (§1) Cell Cytotoxic Test on Huh-luc/noe-ET Cells
(§2) Huh-luc/neo-ET cells with a concentration of 2.5×10^4 cells/100 μl/well were seeded into a 96 well culture plate (Corning Incorporation COSTAR, 3599) and placed into a cell incubator for culturing.
(§3) The next day, the oleanolic acid derivatives as listed in the following Tables 1 and 2 were diluted with a DMEM culture medium to the concentrations of 28.73 μg/ml, 9.57 μg/ml, 3.19 μg/ml, 1.06 μg/ml, 0.35 μg/ml, 0.11 μg/ml, 0.039 μg/ml and 0.013 μg/ml, respectively, or diluted to the concentrations of 114.92 μg/ml, 38.33 μg/ml, 12.77 μg/ml, 4.25 μg/ml, 1.42 μg/ml, 0.46 μg/ml, 0.16 μg/ml and 0.057 μg/ml, respectively. The initial medium in the 96 well culture plate was sucked out by a vacuum pump (DOAT-704AA) without removing the cells. Then, the culture medium containing the oleanolic acid derivatives were added into the 96 well culture plate containing 100 μl/well of the cells as the experiment groups, while the untreated culture mediums were added to the cells as a control.
(§4) After a two-day culture, the medium was removed and each well containing cells was washed by 100 μl of 1×PBS (1 mM KH2PO4, 10 mM Na2HPO4, 137 mM NaCl, 2.7 mM KCl) twice. Precipitates were recorded and PBS was removed. 50 μl of the medium containing 0.5 mg/ml of MTT (Sigma, M2128) was added into each well of the 96 well culture plate. The 96 well culture plate was placed in a CO2 culture incubator for 1 hour. Subsequently, 150 μl of DMSO (Riedel-de Haül, 60153) was added to each well of the 96 well culture plate and vortexed (KS shaker Type 670) to thoroughly mix the resulting purple precipitates. The 96 well culture plate was then placed in a continuous wave length microwell plate analysis system (Molecular Devices, SPECTRAMAX 190) to measure the absorbance of cells at a wavelength of 560 nm.
(§5) The average absorbance of the control was set as 100% of the cell survival rates (%) to calculate the cell survival rates (%) of the experiment groups with different concentrations of the oleanolic acid derivatives.
(§6) The cell survival rate was calculated by the following formula: Absorbance of the experiment group/Absorbance of the control×100%
(§7) The data of the cell survival rates for all experiment groups were plotted on an x-y graph to see the distribution. A trend line was obtained. […]

[2] = Cell cytotoxic test (MTT) on Huh-luc/neo-ET cells; assay type: cell-based; settings: human, concentration for 50% cell kill, two-day culture
Method: as §1, §2, §3, §4, §5, §6, §7

[3] = tested on: HCV replicon system (Huh-luc/neo-ET cell carrying I389luc-ubi-NS3-3'/ET); experiment: Inhibition of the HCV replication by determining the firefly luciferase activity (HCV replicon system); assay type: cell-based, Hepatitis C virus; settings: for inhibition at 10 µM: compound concentration 10 μM; for EW (CC50/IC50): ratio of CC50/IC50
Text: HCV replicon system was used to test the effects of compounds on the treatment and prevention of hepatitis C. The HCV replicon system has been acknowledged as a screening tool for new drugs (Lohmann, V. et al., 1999, Replication of subgenomic hepatitis C virus RNAs in hepatoma cell line, Science. Vol. 285, 110-113; Bartenschlager, R. 2002, Hepatitis C virus replicons: potential role for drug development, Nature Reviews/Drug Discovery. Vol. 1, 911-916; Vorlijk, J. M. et al., 2003, A replicon-based bioassay for the measurement of interferons in patients with chronic hepatitis C, Journal of Virological Methods. 110:201-209). The HCV replicon system includes a Huh-luc/neo-ET cell carrying I389luc-ubi-NS3-3′/ET gene construct which monitors the replicative capability of the HCV. In the HCV replicon system, a firefly luciferase-ubiquitin-neomycin fusion protein is expressed by the translation of the internal ribosomal entry site (IRES) of the HCV, and the hepatitis C viral nonstructural proteins (NS3-5B), which includes protease, helicase and polymerase, are expressed by the translation of the IRES of the encephalomyocarditis virus (EMCV).
The IRES of the hepatitis C virus or the hepatitis C viral nonstructural proteins consist of a replication complex. When the replication complex is affected by the candidate compound, the activity of the HCV replicon system is inhibited and the activity of the luciferase is reduced. Accordingly, the inhibition of the HCV can be estimated by determining the activity of the intensity of the luciferase expressed by the Huh-luc/noe-ET cell.
Inhibition of the HCV Replication by Determining the Firefly Luciferase Activity
as §2
The oleanolic acid derivatives as listed in Table 2 were co-cultured with Huh-luc/neo-ET cells for 2 days. The mediums were washed twice by 100 μl of 1×PBS (1 mM KH2PO4, 10 mM Na2HPO4, 137 mM NaCl, 2.7 mM KCl) and PBS was removed. 35 μl of 1× passive lysis buffer (Promega, E1941) was added to the cells and vortexed for 10 minutes to thoroughly lysis the cells.
30 μl/well of the cell suspension was then added to a 96 well white plate (NUNC, 236108) for the measurement of the luciferase activity. Subsequently, 40 μl/well of luminescence analysis buffer and 20 μl/well of luminescence substrate (1 mM D-Luciferin) were added into the 96 well white plates. The luciferase activity (Rlu/s) was measured by a microplate luminescence meter (Berthold, MPL4) immediately.
The luciferase activity of the control was set as a standard to calculate the inhibition rates (%) of HCV of the experiment groups. The inhibition rates was calculated by the following formula: […]
After the test compounds were serial diluted and the inhibition rates of the HCV replication were determined at different concentrations, the concentration at 50% inhibition of the HCV replication (IC50) was calculated by grafit5 software (Erithacus Software).
For each experiment, 0.5 ng/ml and 0.1 ng/ml of the PEG IFN alpha-2a were used as positive controls for the IC50 test. Meanwhile, 1 μg/ml of cyclosporine A (CsA) was also used as a positive control for the IC50 test.

[4] = Hepatitis C virus, Huh-luc/neo-ET, 48 h, 2 days co-culture, luciferase activity, read-out: Inhibition rate (%)
[5] = Hepatitis C virus, concentration for 50% inhibition of the HCV replication, Huh-luc/neo-ET replicon cells, read-out: IC50

| Structure (SMILES) | CC15 [1] [µM] | CC50 at 2 days [2] [µM] | inhibition at 10 µM [3, 4] [%] | IC50 [3, 5] [µM] | EW (CC50/IC50) [3] | IC50 ([3]; Hepatitis C virus, Huh-luc/neo-ET) [µM] | inhibition at 5 µM ([3]; Hepatitis C virus, Huh-luc/neo-ET, 48 h, read-out: Inhibition rate (%)) [%] | inhibition at 4 µM ([3]; Hepatitis C virus, Huh-luc/neo-ET, 48 h, compound concentration 4 μM, 2 days co-culture, luciferase activity, read-out: Inhibition rate (%)) [%] |
| --- | --- | --- | --- | --- | --- | --- | --- | --- |
| C=CC(C)(O)CC/C=C(\C)C(=O)OC1C(OCC2OC(OC(=O)C34CCC(C)(C)CC3C3=CCC5C6(C)CCC(OC7OC(COC8OCC(O)C(O)C8OC8OCC(O)C(O)C8O)C(O)C(O)C7O)C(C)(C)C6CCC5(C)C3(C)CC4O)C(OC3OC(C)C(OC4OCC(O)C(OC5OCC(O)C(O)C5O)C4O)C(O)C3O)C(OC(=O)/C(C)=C/CCC(C)(O)C=C)C2O)OC(C)C(O)C1O (centres unmarked) [A21] | 11.64 | 56.7 | 97.3 ± 1.1 | 0.63 ± 0.07 | 90.03 | – | – | – |
| CC1(C)CC2C3=CCC4[C@@]5(C)CC[C@H](OC6OCC(O)C(OC7OC(CO)C(O)C(O)C7O)C6O)C(C)(C)C5CC[C@@]4(C)[C@]3(C)C[C@H](O)[C@@]2(CO)[C@H](OC(=O)c2ccccc2)C1 (some centres unmarked) [A22] | 8.62 | 40 | -0.8 ± 5.7 | – | – | – | – | – |
| C=CC(C)(O)CCCC(C)C(=O)OC1C(C)OC(OC(C)(C=C)CC/C=C(\CO)C(=O)OC2CC3(C(=O)OC4OCC(OC5OC(CO)C(O)C(OC6OC(CO)C(OC7OC(C)C(O)C(O)C7O)C(O)C6O)C5O)C(O)C4O)CCC4(C)C(=CCC5C6(C)CCC(OC7OC(CO)C(OC8OC(CO)C(O)C(OC9OCC(O)C(O)C9O)C8O)C(O)C7O)C(C)(C)C6CCC54C)C3CC2(C)C)C(O)C1O (centres unmarked) [A23] | 7.96 | 38.1 | – | – | 156.73 | 0.23 ± 0.02 | 93.5 ± 0.4 | – |
| CC(=O)NC1C(O[C@H]2CC[C@@]3(C)C(CC[C@]4(C)C3CC=C3C5CC(C)(C)CC[C@]5(C(=O)OC5OC(COC(=O)/C=C/c6ccccc6)C(OC6OC(CO)C(O)C(O)C6OC(C)=O)C(O)C5OC5OCC(OC6OCC(O)(CO)C6O)C(O)C5O)CC[C@]34C)C2(C)C)OC(COC2OCC(O)C(O)C2OC2OCC(O)C(O)C2O)C(OC2OC(CO)C(O)C(O)C2O)C1O (some centres unmarked) [A24] | 4.53 | 14.1 | – | – | – | – | – | 54.8 ± 5.4 |
| C=CC(C)(O)CC/C=C(\C)C(=O)O[C@H]1[C@H](O)[C@@H](CO)OC(OC(=O)[C@]23CCC(C)(C)CC2C2=CCC4[C@@]5(C)CC[C@H](OC6O[C@H](COC7OC[C@H](O)[C@H](O)[C@H]7OC7OC[C@@H](O)[C@H](O)[C@H]7O)[C@@H](O)[C@H](O)[C@H]6O)C(C)(C)C5CC[C@@]4(C)[C@]2(C)CC3)[C@@H]1OC1OC(C)C(OC2OC[C@@H](O)[C@H](OC3OC[C@@H](O)[C@H](O)[C@H]3O)[C@H]2O)C(O)C1O (some centres unmarked) [A25] | 10.29 | 64.1 | 96.5 ± 0.8 | 0.36 ± 0.016 | 178.08 | – | – | – |
| C=CC(C)(O)CC/C=C(\C)C(=O)OC1C(O)C(CO)OC(OC(=O)C23CCC(C)(C)CC2C2=CCC4C5(C)CCC(OC6OC(COC7OCC(O)C(O)C7OC7OCC(O)C(O)C7O)C(O)C(O)C6O)C(C)(C)C5CCC4(C)C2(C)CC3O)C1OC1OC(CO)C(OC2OCC(O)C(OC3OCC(O)C(O)C3O)C2O)C(O)C1O (centres unmarked) [A26] | 7.94 | 38.4 | 95.6 ± 1.2 | 0.45 ± 0.04 | 85.24 | – | – | – |
